What was measured:
Test in all cases: High-content immunofluorescence (IF) assay, overexpressed full-length FLAG-tagged KDM in HeLa cells
Assay type in all cases: cell-based
KDM4A = biological target: T1, KDM4A (Homo sapiens, UniProt O75164, A482E); conditions: HeLa cells transfected with KDM4A
T1 construct: transiently transfecting the full-length FLAG-tagged demethylase (WT) into cells; expressed in transfected cells; host or cells: HeLa
T1 sequence (O75164 1-1064 A482E): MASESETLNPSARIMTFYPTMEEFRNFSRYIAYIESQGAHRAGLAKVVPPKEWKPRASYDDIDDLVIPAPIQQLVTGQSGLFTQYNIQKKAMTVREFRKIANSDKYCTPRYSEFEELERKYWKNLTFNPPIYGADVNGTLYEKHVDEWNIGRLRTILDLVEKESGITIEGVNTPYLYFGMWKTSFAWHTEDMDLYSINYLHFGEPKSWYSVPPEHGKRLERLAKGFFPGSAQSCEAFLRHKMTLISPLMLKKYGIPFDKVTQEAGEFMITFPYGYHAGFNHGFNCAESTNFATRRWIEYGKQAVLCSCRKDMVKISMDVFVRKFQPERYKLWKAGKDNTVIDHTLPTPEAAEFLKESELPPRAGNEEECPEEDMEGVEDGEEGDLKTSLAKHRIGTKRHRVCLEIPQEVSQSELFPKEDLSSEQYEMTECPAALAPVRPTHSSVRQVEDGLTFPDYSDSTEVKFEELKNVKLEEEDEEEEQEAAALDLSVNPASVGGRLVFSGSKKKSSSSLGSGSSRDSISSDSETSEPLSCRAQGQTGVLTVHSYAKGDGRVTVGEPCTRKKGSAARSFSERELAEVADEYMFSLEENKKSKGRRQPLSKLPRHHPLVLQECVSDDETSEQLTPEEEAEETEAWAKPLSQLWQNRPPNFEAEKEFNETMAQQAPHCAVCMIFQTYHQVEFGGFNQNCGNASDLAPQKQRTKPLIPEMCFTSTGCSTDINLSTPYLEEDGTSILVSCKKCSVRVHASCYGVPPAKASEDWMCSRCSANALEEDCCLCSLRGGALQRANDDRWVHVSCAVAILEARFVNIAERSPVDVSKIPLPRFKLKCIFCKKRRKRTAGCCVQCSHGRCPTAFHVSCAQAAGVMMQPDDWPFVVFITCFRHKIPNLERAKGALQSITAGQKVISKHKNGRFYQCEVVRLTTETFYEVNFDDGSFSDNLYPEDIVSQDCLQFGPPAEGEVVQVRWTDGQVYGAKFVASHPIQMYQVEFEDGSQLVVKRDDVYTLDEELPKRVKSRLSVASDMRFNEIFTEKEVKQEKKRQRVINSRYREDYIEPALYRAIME

KDM6B = KDM6B (Homo sapiens, UniProt O15054); conditions: HeLa cells overexpressing WT KDM6B, H3K27me3 mark, 24 h; read-out: KDM6B, in cells, EC50 by IF assay (head: IC50)
KDM2A = biological target: T2, KDM2A (Homo sapiens, UniProt Q9Y2K7); conditions: HeLa cells overexpressing WT KDM2A, 24 h; read-out: KDM2A, in cells, EC50 by IF assay (head: IC50)
T2 sequence (Q9Y2K7 1-1162): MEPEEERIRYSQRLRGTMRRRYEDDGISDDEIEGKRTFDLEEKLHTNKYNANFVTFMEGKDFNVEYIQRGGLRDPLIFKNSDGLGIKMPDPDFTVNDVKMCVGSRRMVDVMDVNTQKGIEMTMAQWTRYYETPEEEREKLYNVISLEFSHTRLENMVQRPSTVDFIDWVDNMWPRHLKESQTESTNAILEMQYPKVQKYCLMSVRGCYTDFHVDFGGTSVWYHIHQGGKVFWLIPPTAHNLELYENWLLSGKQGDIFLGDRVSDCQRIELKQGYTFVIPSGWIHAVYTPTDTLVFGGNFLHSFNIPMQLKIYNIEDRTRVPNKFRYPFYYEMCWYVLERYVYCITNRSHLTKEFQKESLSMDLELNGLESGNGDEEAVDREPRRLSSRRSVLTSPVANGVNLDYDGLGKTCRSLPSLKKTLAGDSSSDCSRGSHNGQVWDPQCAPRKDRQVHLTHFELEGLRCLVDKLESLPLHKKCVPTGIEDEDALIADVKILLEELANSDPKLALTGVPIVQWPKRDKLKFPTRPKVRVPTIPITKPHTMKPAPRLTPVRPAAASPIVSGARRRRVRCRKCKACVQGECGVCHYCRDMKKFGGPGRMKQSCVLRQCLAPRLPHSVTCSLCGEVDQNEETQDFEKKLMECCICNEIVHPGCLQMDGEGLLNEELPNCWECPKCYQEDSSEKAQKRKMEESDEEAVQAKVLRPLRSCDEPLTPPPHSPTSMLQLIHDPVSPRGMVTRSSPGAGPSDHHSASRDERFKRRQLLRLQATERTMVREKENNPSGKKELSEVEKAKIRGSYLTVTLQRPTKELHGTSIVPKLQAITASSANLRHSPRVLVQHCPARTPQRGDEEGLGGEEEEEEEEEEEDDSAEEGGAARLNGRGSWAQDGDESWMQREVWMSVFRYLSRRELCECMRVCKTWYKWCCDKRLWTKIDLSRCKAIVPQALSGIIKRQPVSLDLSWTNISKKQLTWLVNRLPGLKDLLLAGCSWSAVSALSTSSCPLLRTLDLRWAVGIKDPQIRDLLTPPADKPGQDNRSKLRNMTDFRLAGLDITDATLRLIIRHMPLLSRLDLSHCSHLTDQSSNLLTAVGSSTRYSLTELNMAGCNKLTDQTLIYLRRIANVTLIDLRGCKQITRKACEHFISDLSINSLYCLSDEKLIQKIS

Chain of KDM6B (O15054 whole entry): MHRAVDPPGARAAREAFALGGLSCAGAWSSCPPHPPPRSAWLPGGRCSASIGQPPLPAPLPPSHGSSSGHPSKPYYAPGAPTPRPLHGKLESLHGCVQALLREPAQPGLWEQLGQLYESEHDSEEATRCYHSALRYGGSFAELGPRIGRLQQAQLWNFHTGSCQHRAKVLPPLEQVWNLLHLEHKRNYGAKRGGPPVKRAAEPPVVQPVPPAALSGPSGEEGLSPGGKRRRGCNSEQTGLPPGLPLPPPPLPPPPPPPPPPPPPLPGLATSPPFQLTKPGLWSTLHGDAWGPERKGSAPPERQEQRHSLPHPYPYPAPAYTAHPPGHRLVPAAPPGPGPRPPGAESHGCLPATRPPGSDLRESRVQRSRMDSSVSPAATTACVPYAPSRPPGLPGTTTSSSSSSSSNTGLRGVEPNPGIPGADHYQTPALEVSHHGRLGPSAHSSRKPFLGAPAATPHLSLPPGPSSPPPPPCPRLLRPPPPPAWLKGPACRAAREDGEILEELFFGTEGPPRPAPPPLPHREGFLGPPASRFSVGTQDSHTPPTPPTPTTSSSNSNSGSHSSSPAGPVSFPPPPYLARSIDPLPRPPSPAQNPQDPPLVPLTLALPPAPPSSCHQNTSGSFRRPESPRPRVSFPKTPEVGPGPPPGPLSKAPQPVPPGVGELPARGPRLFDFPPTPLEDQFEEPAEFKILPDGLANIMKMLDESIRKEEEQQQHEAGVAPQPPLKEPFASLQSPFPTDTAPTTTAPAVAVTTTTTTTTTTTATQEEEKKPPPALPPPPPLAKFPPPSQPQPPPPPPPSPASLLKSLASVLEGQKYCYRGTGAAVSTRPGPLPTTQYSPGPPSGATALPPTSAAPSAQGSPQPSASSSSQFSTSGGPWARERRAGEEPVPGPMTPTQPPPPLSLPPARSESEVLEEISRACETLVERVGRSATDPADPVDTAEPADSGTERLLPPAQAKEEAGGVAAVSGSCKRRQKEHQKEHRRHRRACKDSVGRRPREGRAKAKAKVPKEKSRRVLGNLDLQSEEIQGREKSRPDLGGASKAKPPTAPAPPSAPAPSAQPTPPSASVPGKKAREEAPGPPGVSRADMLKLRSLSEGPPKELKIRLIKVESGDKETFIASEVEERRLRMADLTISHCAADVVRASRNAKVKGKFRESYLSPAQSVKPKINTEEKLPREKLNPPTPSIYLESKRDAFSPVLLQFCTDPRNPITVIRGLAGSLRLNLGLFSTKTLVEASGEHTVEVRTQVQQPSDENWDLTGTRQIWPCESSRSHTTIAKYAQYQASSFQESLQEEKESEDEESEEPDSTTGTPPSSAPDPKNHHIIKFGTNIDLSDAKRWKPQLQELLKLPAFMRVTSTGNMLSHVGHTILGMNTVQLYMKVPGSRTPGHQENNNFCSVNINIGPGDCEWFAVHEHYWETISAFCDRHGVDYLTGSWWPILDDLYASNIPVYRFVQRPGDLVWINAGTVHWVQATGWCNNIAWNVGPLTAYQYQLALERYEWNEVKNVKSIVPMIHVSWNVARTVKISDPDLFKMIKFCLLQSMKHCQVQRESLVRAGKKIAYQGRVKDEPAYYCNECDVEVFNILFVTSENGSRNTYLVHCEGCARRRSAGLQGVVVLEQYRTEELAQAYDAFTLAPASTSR

Compound	Effect on H3K9me3 levels in KDM4A IF assay, in words (KDM4A)	EC50 (KDM6B) [µM]	EC50 (KDM2A) [µM]
O=c1[nH]cnc2c(-n3cc(CCN4CCC(c5cccc(Cl)c5)CC4)cn3)cccc12 [CCT366293, 8-(4-(2-(4-(3-Chlorophenyl)piperidin-1-yl)ethyl)-1H-pyrazol-1-yl)quinazolin-4(3H)-one]	no effect		
CCN(CCN(C)C)C(=O)CNCc1cncc(C(N)=O)c1 [KDOAM-32]		> 100	> 100

Reference: paper PMC5333395, “Assessing histone demethylase inhibitors in cells: lessons learned” (Epigenetics & Chromatin, 2017)
